# Measurements as given in the METLIN SMRT retention time set (Domingo-Almenara et al. 2019).
# Assay: gradient 5% acetonitrile 3 min, to 50% in 2 min, to 85% in 15 min, held 3 min, 100 µL/min
# Conditions: column: Zorbax Extend-C18 2.1 x 50 mm; eluents: water / acetonitrile, 0.1% formic acid
# How it was run: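 Retention time was recorded from adduct peaks, which were picked computationally and each inspected manually. Pure standards ran in mixtures of ~100 molecules on HPLC coupled to a quadrupole time-of-flight mass spectrometer, in positive and negative ionization mode, through a Zorbax Extend-C18 column (2.1 × 50 mm, 1.8 μm) at 100 μL/min. Eluents were water and acetonitrile, each with 0.1% formic acid.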
row,SMILES,RP-LC retention time [s]
1,Cc1cccc(-c2nnc(-c3ccc(Cl)c(S(=O)(=O)N4CCCCC4)c3)o2)c1,1250
2,CCN(CC)c1nc2ccsc2c(=O)n1CCC(=O)N1CCN(c2ccccn2)CC1,683
3,COc1ccccc1C(=O)NCCc1c[nH]c2ccc(F)cc12,842
4,COc1ccc(CC(=O)N2CCc3cc(-c4csc(C)n4)ccc32)cc1,1060
5,COc1ccc2c(CCNC(=O)c3ccc(F)cc3)c[nH]c2c1,778
6,CC(C)(C)c1csc(-c2csc(S(=O)(=O)Nc3ccc(F)c(F)c3)c2)n1,1260
7,COc1ccccc1CNC(=O)C1CCN(Cc2cn(C)c3ccc(Cl)cc23)CC1,714
8,COc1ccc(C2(CNC(=O)c3cc(-c4ccccc4)n[nH]3)CCOCC2)cc1,749
9,COc1ccc(Nc2nc(N3CCN(c4ccccc4OC)CC3)nc3c2C(=O)CCC3)cc1,1170
10,Cc1cc2nn(CC(=O)Nc3ccc(F)cc3Cl)c(=O)n2c(Nc2ccccc2)n1,1030
11,O=C(NCC1CCN(C(=O)Nc2ccc(F)cc2)CC1)c1ccsc1,682
12,CC1CCCCN1S(=O)(=O)c1ccc2c(c1)CCC(=O)N2CC(=O)NCCc1ccccc1 (stereo unspecified),900
13,COc1cc(C2C(C(=O)N3CCOCC3)=C(C)NC3=C2C(=O)CCC3)cc(Br)c1O (stereo unspecified),607
14,COc1cc(NC(=O)c2cc3cc4cc(OC)ccc4nc3o2)cc(OC)c1,971
15,O=c1[nH]cc(S(=O)(=O)N2CCCCC2)c(=O)[nH]1,604
16,CC1=C(c2ccccc2)S(=O)(=O)N=C1N1CCCN(C(=O)C2CCCO2)CC1 (stereo unspecified),702
17,CNC(=O)N1CCCC(c2cccc(C(=O)NCc3cc(OC)ccc3OC)c2)C1 (stereo unspecified),766
18,O=C(C1=CN(c2cccc(F)c2)c2cc(Cl)ccc2S1(=O)=O)N1CCCC1,838
19,CCc1ccc(NC(=O)Cn2cnc3nc(N4CCCC(C(=O)NC)C4)sc3c2=O)cc1 (stereo unspecified),694
20,COc1ccc(CNC(=O)c2cnc3c(c2)c(=O)n(C)c(=O)n3-c2ccc(OC)cc2)cc1,841
21,CC1CCCCN1CCCNC(=O)CCCn1c(=O)c2cccn2c2ccccc21 (stereo unspecified),627
22,CCOc1ccc(S(=O)(=O)N2CCC(C(=O)NCCc3csc(-c4ccccc4)n3)CC2)cc1,997

row,SMILES,RP-LC retention time [s]
1,CCC(C)NS(=O)(=O)c1cc(-c2nnc(-c3ccccc3)o2)ccc1F (stereo unspecified),966
2,COc1cc(NC(=O)c2sc(-c3cn(C)c4ncccc34)nc2C)cc(OC)c1,764
3,COc1cccc(Cn2c(C)c(CNCc3ccccn3)c(C(=O)O)c2C)c1,676
4,CSc1ccc(CNC(=O)C2CCCN(c3nn4c(=O)c5c(nc4s3)CCCC5)C2)cc1 (stereo unspecified),792
5,CCOC(=O)c1sc(NC(=O)C2CCCCN2S(=O)(=O)c2cccs2)cc1C (stereo unspecified),962
6,Fc1cccc(CNc2nnc(-c3nnc(C4CC4)o3)c3ccccc23)c1,933
7,O=C(NCC1CC1)[C@@H]1OCCN(C2CC2)[C@H]1c1ccccc1,612
8,CN(C)CCNC(=O)c1ccc(CS(=O)c2ccc(Cl)cc2)o1 (stereo unspecified),591
9,C=CCN1CC(c2nc3ccccc3n2CC(O)COc2cc(C)ccc2C)CC1=O (stereo unspecified),664
10,Cc1cc(C)n2nc(SCC(=O)N(C)c3ccccc3)nc2n1,705
11,CCCNC(=O)N1CCN(Cc2nc3cc(-c4ccccc4)ccc3o2)CC1,722
12,Cc1cccc(C(C)c2cnc[nH]2)c1C (stereo unspecified),689
13,CC(=O)Nc1ccc(S(=O)(=O)N2CCN(S(=O)(=O)N(C)C)CC2)cc1,653
14,O=C(Cn1nc2c3cc(-c4ccc(F)cc4)nn3ccn2c1=O)Nc1ccc(F)cc1,888
15,Cc1c(C)n(CCCN2CCOCC2)c2ncn3nc(C(C)N4C(=O)c5ccccc5C4=O)nc3c12 (stereo unspecified),662
16,Cc1cccc(C(=O)Nc2c(-c3ccccc3)nc3cc(C)ccn23)c1,674
17,CC(C)NC(=O)N(C1CC1)C1CCOC2(CCN(C(=O)C3CC3)CC2)C1 (stereo unspecified),688
18,c1ccc(N2CCN(Cc3nc(-c4ccc(N5CCCCCC5)nc4)no3)CC2)nc1,593
19,O=C(Nc1cnc(N2CCCC2)nc1)c1ccc(Br)cc1,796
20,CCOc1ccccc1CNC(=O)C1CCCN(c2nnc(C)c3c(C)n(-c4ccccc4)nc23)C1 (stereo unspecified),774
21,COC(=O)c1ncn2c1C(=O)N(c1ccc(F)cc1C)C(C)(C(=O)NCc1ccccc1)C2 (stereo unspecified),708
22,Cc1nn(-c2ccccc2)c2c1nc(CCC(=O)N1CCN(c3ccccn3)CC1)c(=O)n2C,601

row,SMILES,RP-LC retention time [s]
1,O=C(Nc1ccc2c(c1)OCCO2)N1CCCC1c1nc(-c2ccc(F)cc2F)no1 (stereo unspecified),882
2,O=C(NCCc1ccccn1)C1CCc2nc(N3CCCCC3)ncc2C1 (stereo unspecified),575
3,COC(=O)c1sccc1NC(=O)N1CCc2c([nH]c3ccccc23)C1c1ccc(OC)cc1 (stereo unspecified),1230
4,COc1ccc(NC(=O)c2cc3c(=O)oc4ccccc4c3n2C)cc1OC,850
5,Cc1ccc(Cn2c(CN3CCC(C(=O)N4CCCC4)CC3)cc3ccccc32)cc1,750
6,COc1ccc(OC)c(NC(=O)C(=O)c2c(C)n(C)c3ccccc23)c1,990
7,Cc1ccc(-c2noc(-c3cccc(S(=O)(=O)N4CCCCC4)c3)n2)cc1,1340
8,Cc1cccc(-c2ncccc2CNS(=O)(=O)c2cccc(Cl)c2)c1,763
9,CCc1ccc(Nc2nc(C(=O)N3CCOCC3)nc3ccccc23)cc1,771
10,Cc1ccc2[nH]cc(CCN3CC(C(=O)NC4CCCCCC4)CC3=O)c2c1 (stereo unspecified),875
11,COc1ccccc1NC(=O)N1CCN(Cc2nc3cc(Cl)ccc3o2)CC1,771
12,COC(=O)c1ncn2c1C(=O)N(c1cc(C)cc(C)c1)C(C)(C(=O)NC1CCCC1)C2 (stereo unspecified),734
13,CCn1nccc1C(=O)NC1CCCCC1,718
14,Fc1ccc(C2Cn3nnc(-c4nc(-c5ccccc5)no4)c3CO2)cc1 (stereo unspecified),1120
15,COCCNC(=O)N1CCCCC1c1nncn1Cc1ccccc1 (stereo unspecified),539
16,Cc1cccc(-c2noc(C3CCCN3C(=O)NC3CCCC3)n2)c1 (stereo unspecified),955
17,Cc1nnc(NC(=O)CN2CCCCC2c2nc(C3CC3)no2)s1 (stereo unspecified),755
18,COC[C@@H]1OCCN(S(=O)(=O)c2cccc(F)c2)[C@H]1c1ccccc1,928
19,Cc1sc(NC(=O)c2cccc(Cl)c2)nc1-c1ccc2c(c1)NC(=O)C(C)O2 (stereo unspecified),1040
20,Cc1cc2c(=O)n(CC(=O)Nc3ccc4c(c3)OCCO4)c3cccnc3n2n1,693
21,O=C(Nc1ccc(Cn2cncn2)cc1)c1ccoc1,621
22,O=C(CSc1nnc2c3cc(-c4ccccc4)nn3ccn12)Nc1cccc(C(F)(F)F)c1,969
